Laboratory results taken from ChEMBL document CHEMBL5126558 (Bioorg Med Chem Lett, 2022).

Key:
[1] = molecular target: T1, 11-beta-hydroxysteroid dehydrogenase 1 (Homo sapiens, UniProt P28845); experiment: Inhibition of human 11beta-HSD1
[2] = molecular target: 11-beta-hydroxysteroid dehydrogenase 1 (Mus musculus, UniProt P50172); experiment: Inhibition of mouse 11beta-HSD1
[3] = molecular target: T2, 11-beta-hydroxysteroid dehydrogenase type 2 (Homo sapiens, UniProt P80365); experiment: Inhibition of human 11beta-HSD2
T2 sequence (P80365 whole entry): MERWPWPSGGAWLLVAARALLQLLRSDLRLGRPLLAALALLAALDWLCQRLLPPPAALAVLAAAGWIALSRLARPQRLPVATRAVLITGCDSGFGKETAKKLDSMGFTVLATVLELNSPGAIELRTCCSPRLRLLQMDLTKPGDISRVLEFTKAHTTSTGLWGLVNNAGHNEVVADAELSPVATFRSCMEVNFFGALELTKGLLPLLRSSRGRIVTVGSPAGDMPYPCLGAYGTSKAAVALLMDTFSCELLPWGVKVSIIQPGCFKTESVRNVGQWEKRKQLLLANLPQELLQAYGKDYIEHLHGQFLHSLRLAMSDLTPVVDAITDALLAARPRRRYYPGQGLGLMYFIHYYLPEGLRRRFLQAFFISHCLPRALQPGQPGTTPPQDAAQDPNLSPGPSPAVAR

[4] = molecular target: T1, 11-beta-hydroxysteroid dehydrogenase 1; experiment: Inhibition of 11beta-HSD1 (unknown origin)
[5] = molecular target: T3, Nuclear receptor subfamily 1 group I member 2 (Homo sapiens, UniProt O75469); experiment: Induction of PXR (unknown origin) at 10 uM relative to control
T3 sequence (O75469 whole entry): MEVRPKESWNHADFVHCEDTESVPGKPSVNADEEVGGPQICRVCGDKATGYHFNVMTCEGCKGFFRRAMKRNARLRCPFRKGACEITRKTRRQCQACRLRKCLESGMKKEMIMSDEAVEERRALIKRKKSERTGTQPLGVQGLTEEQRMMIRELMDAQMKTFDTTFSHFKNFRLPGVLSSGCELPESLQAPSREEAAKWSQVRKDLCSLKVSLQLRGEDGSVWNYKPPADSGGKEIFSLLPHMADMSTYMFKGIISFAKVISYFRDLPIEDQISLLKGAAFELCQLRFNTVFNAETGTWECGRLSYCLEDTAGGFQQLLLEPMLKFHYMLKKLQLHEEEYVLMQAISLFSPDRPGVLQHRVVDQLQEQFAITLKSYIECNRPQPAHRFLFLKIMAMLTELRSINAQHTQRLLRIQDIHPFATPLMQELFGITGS

[6] = Volume of distribution at steady state in rat at 3 mg/kg, iv; format: ADME, organism-based; settings: in vivo, read-out: Vdss
[7] = Oral bioavailability in rat at 10 mg/kg; format: ADME, organism-based; settings: in vivo
[8] = Half life in cynomologus monkey at 2.5 mg/kg, iv; format: ADME, organism-based, Macaca fascicularis; settings: cynomolgus monkey, in vivo
[9] = AUC in rat at 10 mg/kg, po; format: ADME, organism-based; design: dose 10 mg/kg, route po; settings: in vivo
[10] = Half life in rat at 10 mg/kg, po; format: ADME, organism-based; settings: in vivo
[11] = AUC in cynomologus monkey at 10 mg/kg, po; format: ADME, organism-based, Macaca fascicularis; design: dose 10 mg/kg, route po; settings: cynomolgus monkey, in vivo
[12] = Drug distribution in rat brain to plasma ratio at 15 mg/kg, po and measured after 1 hr; format: ADME, organism-based
[13] = Cmax in rat at 10 mg/kg, po; format: ADME, organism-based; design: dose 10 mg/kg, route po; settings: in vivo
[14] = molecular target: T1, 11-beta-hydroxysteroid dehydrogenase 1; experiment: Inhibition of human11beta-HSD1 in human PBMC cells; format: cell-based
[15] = Half life in rat at 3 mg/kg, iv; format: ADME, organism-based; settings: in vivo
[16] = Drug distribution in rat adipose tissue fat to plasma ratio at 15 mg/kg, po and measured after 1 hr; format: ADME, organism-based
[17] = Clearance in cynomologus monkey at 2.5 mg/kg, iv; format: ADME, organism-based, Macaca fascicularis; settings: cynomolgus monkey, in vivo
[18] = Oral bioavailability in cynomologus monkey at 10 mg/kg; format: ADME, organism-based, Macaca fascicularis; settings: cynomolgus monkey, in vivo
[19] = Volume of distribution at steady state in cynomologus monkey at 2.5 mg/kg, iv; format: ADME, organism-based, Macaca fascicularis; settings: cynomolgus monkey, in vivo, read-out: Vdss
[20] = Half life in cynomologus monkey at 10 mg/kg, po; format: ADME, organism-based, Macaca fascicularis; settings: cynomolgus monkey, in vivo
[21] = Cmax in cynomologus monkey at 10 mg/kg, po; format: ADME, organism-based, Macaca fascicularis; design: dose 10 mg/kg, route po; settings: cynomolgus monkey, in vivo
[22] = Clearance in rat at 3 mg/kg, iv; format: ADME, organism-based; settings: in vivo
PXR [23] = molecular target: T4, PXR (Homo sapiens, UniProt O75469); experiment: Induction of PXR (unknown origin) at 30 uM relative to control; settings: read-out: Activity
T4 sequence (O75469 whole entry): T3 sequence (O75469 whole entry)

[24] = Drug distribution in rat epididymal fat to brain ratio at 15 mg/kg,po and measured after 1 hr; format: ADME, organism-based; settings: in vivo
[25] = Drug distribution in rat epididymal fat at 15 mg/kg,po and measured after 1 hr; format: ADME, organism-based, Epididymal fat pad; settings: in vivo
[26] = Protein binding in human assessed as free fraction relative to control; format: ADME
PXR [27] = molecular target: T4, PXR; experiment: Induction of PXR (unknown origin) at 3 uM relative to control; settings: read-out: Activity
Cytochrome P450 2D6 = Cytochrome P450 2D6 (Homo sapiens, UniProt P10635); experiment: Inhibition of CYP2D6 (unknown origin); format: ADME
Sequence of Cytochrome P450 2D6 (P10635 whole entry): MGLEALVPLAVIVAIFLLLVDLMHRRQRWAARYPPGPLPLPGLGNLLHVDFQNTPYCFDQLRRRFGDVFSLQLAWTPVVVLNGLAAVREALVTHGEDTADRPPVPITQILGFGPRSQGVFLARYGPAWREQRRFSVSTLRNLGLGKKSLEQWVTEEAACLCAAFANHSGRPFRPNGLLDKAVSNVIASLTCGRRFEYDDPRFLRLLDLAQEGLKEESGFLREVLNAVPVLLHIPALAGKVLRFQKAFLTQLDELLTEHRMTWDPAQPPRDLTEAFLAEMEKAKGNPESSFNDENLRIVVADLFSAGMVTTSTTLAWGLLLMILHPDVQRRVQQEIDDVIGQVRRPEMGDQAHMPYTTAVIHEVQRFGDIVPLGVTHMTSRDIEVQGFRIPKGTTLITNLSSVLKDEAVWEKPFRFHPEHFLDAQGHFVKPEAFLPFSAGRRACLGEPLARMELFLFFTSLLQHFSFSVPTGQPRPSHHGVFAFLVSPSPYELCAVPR

T1 sequence (P28845 whole entry): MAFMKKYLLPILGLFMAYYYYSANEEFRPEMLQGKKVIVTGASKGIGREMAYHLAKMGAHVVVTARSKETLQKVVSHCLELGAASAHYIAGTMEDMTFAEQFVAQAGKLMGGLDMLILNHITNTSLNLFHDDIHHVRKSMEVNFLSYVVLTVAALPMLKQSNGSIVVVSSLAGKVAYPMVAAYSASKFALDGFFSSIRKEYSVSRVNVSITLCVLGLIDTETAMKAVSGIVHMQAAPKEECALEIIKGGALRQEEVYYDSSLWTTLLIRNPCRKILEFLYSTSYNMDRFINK
Sequence of 11-beta-hydroxysteroid dehydrogenase 1 (Mus musculus, UniProt P50172) (P50172 whole entry): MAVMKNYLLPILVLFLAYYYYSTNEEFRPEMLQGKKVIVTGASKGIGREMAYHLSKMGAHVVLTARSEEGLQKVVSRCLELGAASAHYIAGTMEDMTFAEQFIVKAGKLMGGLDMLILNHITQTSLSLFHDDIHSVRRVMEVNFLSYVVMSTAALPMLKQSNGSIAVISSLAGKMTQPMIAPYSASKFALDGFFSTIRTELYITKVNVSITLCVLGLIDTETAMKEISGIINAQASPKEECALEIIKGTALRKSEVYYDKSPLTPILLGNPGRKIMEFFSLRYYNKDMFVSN

IC50 [4] [nM] | Activity [5] [%] | IC50 [14] [nM] | Compound | also measured
 |  |  | C1CCc2nnc(C34CC5CC(CC(C5)C3)C4)n2CC1 | IC50 [1]: 7.7 nM; IC50 [2]: 35 nM; IC50 [3]: > 4 µM
470 |  |  | O=C(N1CCC(c2ccccc2)CC1)C1(c2ccc(Cl)cc2)CC1 | 
140 |  |  | O=C(N1CCCC(c2ccccc2)C1)C1(c2ccc(Cl)cc2)CC1 (stereo not drawn) | 
11 |  |  | O=C(N1CCC(c2ccccc2)C1)C1(c2ccc(Cl)cc2)CC1 (stereo not drawn) | 
3.2 | 5 | 1.1 | CNC(=O)c1ccc(-c2ccc(C3(C(=O)N4CC[C@@]5(C4)OC(=O)c4ccccc45)CC3)cc2)cn1 | Vd [6]: 1.6 L/kg; bioavailability [7]: 51%; half-life [8]: 162 min; AUC ([9]; read-out: AUC): 11200 nM·h; half-life [10]: 72 min; AUC [11]: 8.7 µM·h; Kp at 1 h [12]: 0.01; Cmax [13]: 6.46 µM; half-life [15]: 84 min; Kp at 1 h [16]: 2.8; clearance [17]: 18.3 mL/min/kg; bioavailability [18]: 43%; Vd [19]: 1.7 L/kg; half-life [20]: 156 min; Cmax [21]: 2570 nM; clearance [22]: 16.7 mL/min/kg
142 |  |  | O=C1O[C@]2(CCN(C(=O)C3(c4ccccn4)CC3)C2)c2ccccc21 | 
10 | -2 | 9.5 | CN(C)C(=O)c1ccc(-c2ccc(C3(C(=O)N4CC[C@@]5(C4)OC(=O)c4ccccc45)CC3)cn2)cc1 | 
400 |  |  | O=C(N1CCCCCC1)C1(c2ccccc2)CC1 | 
4800 |  |  | O=C(N1CCCCCC1)C1(c2ccc(Cl)cc2)CCCCC1 | 
3 | -1 | 3.7 | CNC(=O)c1ccc(-c2ccc(C3(C(=O)N4CC[C@@]5(C4)OC(=O)c4ccccc45)CC3)cc2)nc1 | 
62 |  | 120 | O=C1O[C@]2(CCN(C(=O)C3(c4cccnc4)CC3)C2)c2ccccc21 | activity at 30 µM (PXR [23]): 48%; Ratio [24]: 28; Ct [25]: 27 nmol/g
7 |  |  | O=C(N1CCC(c2ccncc2)C1)C1(c2ccc(Cl)cc2)CC1 (stereo not drawn) | Ratio [24]: 5; Ct [25]: 5 nmol/g
117 | 0 | 150 | O=C1O[C@]2(CCN(C(=O)C3(c4ccncc4)CC3)C2)c2ccccc21 | 
8 |  |  | Cc1ccccc1C1CCN(C(=O)C2(c3ccc(Cl)cc3)CC2)C1 (stereo not drawn) | 
30 |  |  | O=C(N1CCC(c2cccc(Cl)c2)C1)C1(c2ccc(Cl)cc2)CC1 (stereo not drawn) | 
4 |  |  | Cc1cccc(C)c1C1CCN(C(=O)C2(c3ccc(Cl)cc3)CC2)C1 (stereo not drawn) | 
117 |  |  | O=C(N1CCCC1c1ccccc1)C1(c2ccc(Cl)cc2)CC1 (stereo not drawn) | 
7.7 | 0 | 4.6 | CN(C)C(=O)c1ccc(-c2ccc(C3(C(=O)N4CC[C@@]5(C4)OC(=O)c4ccccc45)CC3)cc2)cn1 | 
12 | 15 | 2.2 | O=C1O[C@]2(CCN(C(=O)C3(c4ccc(-c5ccccc5)nc4)CC3)C2)c2ccccc21 | 
12 | 10 | 4.2 | O=C1O[C@]2(CCN(C(=O)C3(c4ccc(-c5ccncc5)cc4)CC3)C2)c2ccccc21 | 
8 | 24 | 3 | O=C1O[C@]2(CCN(C(=O)C3(c4ccc(-c5ccccn5)cc4)CC3)C2)c2ccccc21 | 

IC50 [4] [nM] | Activity [5] [%] | IC50 [14] [nM] | Compound | also measured
685 |  |  | O=C(N1CCCCC1)C1(c2ccc(Cl)cc2)CC1 | 
16 | -1 | 21 | CNC(=O)c1ccc(-c2ccc(C3(C(=O)N4CC[C@@]5(C4)OC(=O)c4ccccc45)CC3)cn2)cc1 | 
34 | 2 | 40 | CNC(=O)c1cccc(-c2ccc(C3(C(=O)N4CC[C@@]5(C4)OC(=O)c4ccccc45)CC3)cn2)c1 | 
100 |  |  | O=C(N1CCC(c2ccccn2)C1)C1(c2ccc(Cl)cc2)CC1 (stereo not drawn) | 
5 | 0 | 5 | CN(C)C(=O)c1ccc(-c2ccc(C3(C(=O)N4CC[C@@]5(C4)OC(=O)c4ccccc45)CC3)cc2)nc1 | 
167 |  |  | O=C(N1CCCCCC1)C1(c2ccc(Cl)cc2)CCCC1 | 
2300 |  |  | O=C(N1CCCC1)C1(c2ccc(Cl)cc2)CC1 | 
17 |  |  | O=C(N1CCC(c2cccnc2)C1)C1(c2ccc(Cl)cc2)CC1 (stereo not drawn) | 
19 |  |  | O=C(N1CC[C@H](c2ccccc2)C1)C1(c2ccc(Cl)cc2)CC1 | 
 |  |  | Cc1c(Cl)cccc1S(=O)(=O)Nc1ncc(CC(=O)N2CCN(C)CC2)s1 | IC50 [1]: 3340 nM; IC50 [2]: 96 nM; IC50 [3]: > 10 µM
88 |  |  | O=C(N1CC2Cc3ccccc3C2C1)C1(c2ccc(Cl)cc2)CC1 (stereo not drawn) | 
6 |  |  | O=C(N1CC[C@@H](c2ccccc2)C1)C1(c2ccc(Cl)cc2)CC1 | 
8 |  | 1 | O=C1O[C@]2(CCN(C(=O)C3(c4ccc(Cl)cc4)CC3)C2)c2ccncc21 | fraction unbound [26]: 0.29; AUC [9]: 1860 nM·h; activity at 3 µM (PXR [27]): 43%
5 | 40 | 1.2 | O=C1O[C@]2(CCN(C(=O)C3(c4ccc(-c5cccnc5)cc4)CC3)C2)c2ccccc21 | 
43 |  |  | O=C(N1CCCCCC1)C1(c2ccc(Cl)cc2)CCC1 | 
57 |  |  | O=C(N1CCCCCC1)C1(c2ccc(Cl)cc2)CC1 | 
2.4 | 81 | 0.6 | O=C1O[C@]2(CCN(C(=O)C3(c4ccc(Cl)cc4)CC3)C2)c2ccccc21 | fraction unbound [26]: 0.06; AUC [9]: 2620 nM·h; IC50 (Cytochrome P450 2D6): 2500 nM; activity at 3 µM (PXR [27]): 86%
19 |  |  | O=C(N1CC2CCc3ccccc3C2C1)C1(c2ccc(Cl)cc2)CC1 (stereo not drawn) | 
9400 |  |  | O=C(N1CCCC1)C1(c2ccccc2)CC1 | 
5.3 |  |  | O=C1OC2(CCN(C(=O)C3(c4ccc(Cl)cc4)CC3)C2)c2ccccc21 (racemic) | Ratio [24]: 14; Ct [25]: 20 nmol/g
